The numbers were not newly measured in the Kinase Knowledgebase extract (Sharma et al. 2016), which cites them from elsewhere.

In one data set the target is EGFR (UniProt P00533). As to the kind of experiment: EGFr Inhibition.
Chain of EGFR (P00533 whole entry, looked up): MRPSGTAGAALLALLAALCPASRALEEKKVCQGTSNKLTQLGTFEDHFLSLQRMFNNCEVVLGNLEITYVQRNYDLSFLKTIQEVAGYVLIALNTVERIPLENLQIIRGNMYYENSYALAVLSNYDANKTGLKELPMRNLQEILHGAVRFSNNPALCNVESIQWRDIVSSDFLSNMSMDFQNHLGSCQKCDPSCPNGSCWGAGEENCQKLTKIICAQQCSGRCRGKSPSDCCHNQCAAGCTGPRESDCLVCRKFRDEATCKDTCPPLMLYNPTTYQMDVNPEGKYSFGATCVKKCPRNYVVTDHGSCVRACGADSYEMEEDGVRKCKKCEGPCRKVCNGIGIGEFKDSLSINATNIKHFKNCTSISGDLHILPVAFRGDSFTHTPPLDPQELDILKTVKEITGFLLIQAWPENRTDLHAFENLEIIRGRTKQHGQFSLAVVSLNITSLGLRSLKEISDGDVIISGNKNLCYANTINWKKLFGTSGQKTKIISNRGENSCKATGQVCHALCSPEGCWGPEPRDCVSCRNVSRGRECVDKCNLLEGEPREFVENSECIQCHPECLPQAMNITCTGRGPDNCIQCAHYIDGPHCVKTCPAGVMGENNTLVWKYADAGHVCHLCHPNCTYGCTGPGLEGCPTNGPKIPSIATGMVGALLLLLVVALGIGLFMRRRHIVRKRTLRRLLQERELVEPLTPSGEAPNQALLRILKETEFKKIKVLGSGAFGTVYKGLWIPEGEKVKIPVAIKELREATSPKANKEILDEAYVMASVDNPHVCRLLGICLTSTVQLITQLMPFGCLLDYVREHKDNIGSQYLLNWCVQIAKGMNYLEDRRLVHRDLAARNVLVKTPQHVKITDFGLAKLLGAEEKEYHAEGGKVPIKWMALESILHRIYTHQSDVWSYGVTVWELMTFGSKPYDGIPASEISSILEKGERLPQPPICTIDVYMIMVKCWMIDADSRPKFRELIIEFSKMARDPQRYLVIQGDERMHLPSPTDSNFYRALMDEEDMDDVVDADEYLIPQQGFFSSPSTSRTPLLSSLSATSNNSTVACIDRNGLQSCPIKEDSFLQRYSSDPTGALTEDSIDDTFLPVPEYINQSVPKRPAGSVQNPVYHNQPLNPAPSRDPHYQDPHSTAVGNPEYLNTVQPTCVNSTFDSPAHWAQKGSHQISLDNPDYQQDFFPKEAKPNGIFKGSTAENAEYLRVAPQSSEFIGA
For `Cn1c(=O)c(-c2c(Cl)cccc2Cl)cc2cnc(NCc3ccccc3)nc21`, the IC50 is 75000 nM.

`CCOC(=O)c1ccc(Nc2ncc3cc(-c4c(Cl)cccc4Cl)c(=O)n(C)c3n2)cc1`: the IC50 was 75000 nM.

`Cn1c(=O)c(-c2c(Cl)cccc2Cl)cc2cnc(NC3CCCCC3)nc21`: the 50% inhibitory concentration (IC50) was 75000 nM.

Take `CC(C)(C)OC(=O)Nc1ccc(Nc2n[nH]c3ncnc(Nc4cccc(Cl)c4)c23)cc1`: the 50% inhibitory concentration (IC50) was 15000 nM.

For the next data set, the target named is CDK2 (human) (UniProt P24941). As to the kind of experiment: Enzyme Assay.
For the compound `O=C1Nc2ccccc2C1=CNc1ccc(-c2cnco2)c2c1CS(=O)(=O)C2`, the concentration for half-maximal inhibition (IC50) is 8.91 nM.

Take `NS(=O)(=O)c1ccc(NN=C2C(=O)Nc3ccc(C(=O)NCCn4ccnc4)cc32)cc1`: the IC50 was 25.1 nM.

On to `CNS(=O)(=O)Cc1ccc(NC=C2C(=O)Nc3ccc4ncsc4c32)cc1`, for which the IC50 was 26.3 nM.

Turning to `O=C1Nc2ccc3ncsc3c2C1=CNc1ccc(S(=O)(=O)NCO)cc1`, the IC50 was 4.68 nM.

On to `CC(C)Oc1cccc2c1C(=NNc1ccc(S(N)(=O)=O)cc1)C(=O)N2`, for which the concentration for half-maximal inhibition (IC50) is 3.31 nM.

By IC50 is commonly meant the concentration at which inhibition is half-maximal.
